Test results from US20230212129A1, “QUINAZOLINE DERIVATIVES USEFUL AS SELECTIVE HDAC6 INHIBITORS” (AnnJi Pharmaceutical Co., Ltd., priority 2020, published 2023).

How the values were obtained:
[1] = biological target: T1, HDAC1 (Homo sapiens, UniProt Q13547); assay: HDAC1 activity, acetylated-AMC-labeled peptide substrate; format: biochemical
T1 construct: GST (C); host or cells: baculovirus expression system, Sf9 insect cells (SP9 [sic])
Protocol: (§1) The activities of HDAC 1 and 6 were measured by using an acetylated-AMC-labeled peptide substrate, a fluorogenic peptide from p53 residues 379-382 (RHIKKAc). The proteins involved in the assay are as the followings (1) Human HIDAC1 (Genflank Accession No. NM_004964): Full length with C-terminal GST tag, MW=79.9 kDa, expressed by baculovirus expression system in SP9 cells; and (2) Human HIDAC6 (Genflank Accession No. BC069243): Full length with N-terminal GST tag, MW=159 kDa, expressed by baculovirus expression system in Sf9 cells.

[2] = biological target: T2, HDAC6 (Homo sapiens, UniProt Q9UBN7); assay: HDAC6 activity, acetylated-AMC-labeled peptide substrate; format: biochemical
T2 construct: GST (N); host or cells: baculovirus expression system, Sf9 insect cells
T2 sequence (Q9UBN7 1-1215): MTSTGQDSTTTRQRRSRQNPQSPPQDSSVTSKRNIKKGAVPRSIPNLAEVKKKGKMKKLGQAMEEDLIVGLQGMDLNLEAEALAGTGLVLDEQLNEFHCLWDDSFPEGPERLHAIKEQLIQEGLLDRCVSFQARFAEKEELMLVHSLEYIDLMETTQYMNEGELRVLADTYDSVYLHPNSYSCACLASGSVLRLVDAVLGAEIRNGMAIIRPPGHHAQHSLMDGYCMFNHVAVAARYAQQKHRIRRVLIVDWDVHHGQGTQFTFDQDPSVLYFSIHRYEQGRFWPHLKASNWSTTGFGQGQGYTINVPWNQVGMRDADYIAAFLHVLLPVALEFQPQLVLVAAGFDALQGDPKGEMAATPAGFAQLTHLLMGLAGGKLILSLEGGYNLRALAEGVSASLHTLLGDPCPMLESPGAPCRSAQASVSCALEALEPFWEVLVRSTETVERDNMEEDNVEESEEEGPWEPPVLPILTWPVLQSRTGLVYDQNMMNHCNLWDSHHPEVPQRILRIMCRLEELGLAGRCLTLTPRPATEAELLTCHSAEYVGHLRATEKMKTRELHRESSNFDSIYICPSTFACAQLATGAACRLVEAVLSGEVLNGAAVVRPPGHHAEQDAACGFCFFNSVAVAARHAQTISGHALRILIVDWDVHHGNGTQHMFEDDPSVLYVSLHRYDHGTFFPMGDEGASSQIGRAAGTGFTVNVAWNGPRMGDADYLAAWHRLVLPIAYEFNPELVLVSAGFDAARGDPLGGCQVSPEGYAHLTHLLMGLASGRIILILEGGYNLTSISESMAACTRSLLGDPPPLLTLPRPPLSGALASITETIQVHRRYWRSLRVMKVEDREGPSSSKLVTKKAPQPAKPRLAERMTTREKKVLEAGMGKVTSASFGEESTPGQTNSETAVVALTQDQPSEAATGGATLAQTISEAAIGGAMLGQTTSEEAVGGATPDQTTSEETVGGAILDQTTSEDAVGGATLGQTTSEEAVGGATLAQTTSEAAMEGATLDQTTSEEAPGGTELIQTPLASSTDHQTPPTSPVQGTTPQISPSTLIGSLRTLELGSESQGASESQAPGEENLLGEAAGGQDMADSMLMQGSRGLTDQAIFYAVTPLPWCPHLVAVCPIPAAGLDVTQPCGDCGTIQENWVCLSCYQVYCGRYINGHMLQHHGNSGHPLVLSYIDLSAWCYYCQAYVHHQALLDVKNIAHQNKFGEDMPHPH
Protocol: as §1

[3] = Oral pharmacokinetics (Table II); parameters: AUC: concentration or dose not given beside the values; conditions: in vivo
[4] = system: dorsal root ganglion (DRG) cells; assay: DRG neurite outgrowth after paclitaxel-induced damage; format: cell-based, C57BL/6J mice; conditions: 0.1 μM and 1 μM, 24 hours prior to 24-hour 0.1 μM paclitaxel; FIG. 1
Protocol: (§2) To investigate the effect of HDAC6 inhibitors in neuron protection and neuron regeneration, the recovery of dorsal root ganglion (DRG) cells post-paclitaxel injury was tested. Dorsal root ganglion was extracted from 7 week-old female C57BL/6J mice and incubated with HDAC6 inhibitors (compounds COMPOUND 33, COMPOUND 34, or COMPOUND 2) at the concentrations of 0.1 μM and 1 μM, or 100 ng/ml of BDNF, a neuronal growth factor (positive control), for 24 hours prior to a 24-hour incubation of 0.1 μM paclitaxel.
The neurite was stained by pIII-tubulin.

[5] = system: acetylated α-tubulin (Ac-α-tub); assay: Western blot of acetylated α-tubulin in primary DRG cells; format: cell-based, C57BL/6J mice; conditions: 48 hours of treatment, FIG. 2
Protocol: as §2

[6] = system: bleomycin-induced pulmonary fibrosis; assay: Bleomycin-induced pulmonary fibrosis model, lung histology (H&E); format: in vivo, mice
Protocol: (§3) The activities of compounds COMPOUND 2 and COMPOUND 33 in preventing and/or treating pulmonary fibrosis were examined using a bleomycin-induced pulmonary fibrosis model, a model that involves deactivated bleomycin hydrolase, elevated oxidative stress, and increased inflammatory cytokines. In the prevention model, mice were administered bleomycin intratracheally an hour in prior to the first oral administration of 30 mg/kg testing compounds. The treatment continued for 21 consecutive days, and mice were sacrificed to examine histological changes of lung tissues were analyzed by H&E staining to evaluate the degree of lung fibrosis. Additionally, the HDAC6 inhibitors, COMPOUND 2 and COMPOUND 33, were tested for their effect in aiding animal recovery from lung injury and pulmonary fibrosis post injury.

[7] = system: IL-6; assay: IL-6 in bronchoalveolar lavage fluid, bleomycin model; format: in vivo, mice; conditions: prevention model, 30 mg/kg oral, 21 days; FIG. 6
Protocol: as §3, with “fibrosis.” for “fibrosis. Additionally, the HDAC6 inhibitors, COMPOUND 2 and COMPOUND 33, were tested for their effect in aiding animal recovery from lung injury and pulmonary fibrosis post injury.”

[8] = system: BioMAP Fibrosis panel (REMyoF, SAEMyoF, MyoF systems); assay: BioMAP Fibrosis panel cytokine/biomarker profiles; format: cell-based
Protocol: The HDAC6 inhibitor compounds were tested in a commercially available platform, BioMAP, for the cytokine profiles in related to tissue injuries. The BioMAP Fibrosis panel included 3 systems stimulated to model TGFβ and TNFα driven myofibroblast differentiation during chronic inflammation and wound healing in different tissue settings. Fibrotic disease of the kidney associated with end-stage renal failure was captured in the REMyoF system consisting of a co-culture of renal proximal tubule epithelial cells and adult fibroblasts. Interstitial lung diseases, including pulmonary fibrotic diseases such as idiopathic pulmonary fibrosis (IPF), was modeled by co-culturing small airway epithelial cells and adult fibroblasts in the SAEMyoF system. Both co-culture systems modeled the paracrine interaction between myofibroblasts and the proximally located epithelial cells, while the impact on fibroblasts alone was interrogated using the monoculture MyoF system. A signature BioMAP profile that is reflective of the changes in protein biomarker readouts within an individual system was generated for each testing compounds. Biomarker readouts selected for therapeutic and biological relevance were predictive for disease outcomes or specific drug effects, and was validated using agents with known clinical efficacy. Each readout was measured quantitatively by immune-based methods that detect protein (e.g., ELISA).

T1 sequence (Q13547 whole entry): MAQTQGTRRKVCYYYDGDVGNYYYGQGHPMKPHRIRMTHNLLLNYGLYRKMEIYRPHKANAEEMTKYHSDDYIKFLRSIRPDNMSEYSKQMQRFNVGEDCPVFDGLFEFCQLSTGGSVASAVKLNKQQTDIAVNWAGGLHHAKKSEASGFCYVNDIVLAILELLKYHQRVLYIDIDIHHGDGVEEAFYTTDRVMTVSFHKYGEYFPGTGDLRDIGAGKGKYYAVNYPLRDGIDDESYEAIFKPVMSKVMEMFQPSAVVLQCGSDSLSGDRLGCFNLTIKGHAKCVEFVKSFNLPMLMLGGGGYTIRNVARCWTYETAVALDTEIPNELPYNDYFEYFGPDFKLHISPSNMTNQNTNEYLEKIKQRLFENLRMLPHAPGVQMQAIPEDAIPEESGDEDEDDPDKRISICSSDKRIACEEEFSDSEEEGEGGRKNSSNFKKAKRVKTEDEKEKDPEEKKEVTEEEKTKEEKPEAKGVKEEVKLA

- IC50 [1]: 4.44 µM
- HDAC6 selectivity (A)/(B) ([2]; HDAC1 IC50 / HDAC6 IC50): 134
- IC50 ([2]; read-out: HDAC6 IC50 (B)): 0.033 µM
- Cmax [3]: 2720 ng/mL
- AUC ([3]; unit inferred): 11000 ng·h/mL
Structure (SMILES): CCc1nc2cc(F)c(/C=C/C(=O)NO)cc2c(=O)n1-c1ccccc1 [Compound 33, (E)-3-(2-ethyl-7-fluoro-4-oxo-3-phenyl-3,4-dihydroquinazolin-6-yl)-N-hydroxyacrylamide]
- neurite outgrowth [4]: significantly rescued the neurite outgrowth
- tubulin hyperacetylation [5]: tubulin hyperacetylation
- development of lung fibrosis ([6]; prevention model, 30 mg/kg oral, 21 consecutive days, FIG. 5): markedly decreased the development of lung fibrosis
- recovery from lung injury and pulmonary fibrosis post injury ([6]; treatment post injury): protective effect in pulmonary inflammatory response and pulmonary fibrosis
- IL-6 level in the BALF [7]: suppressed IL-6 level in the BALF
- fibrosis-related matrix activities ([8]; BioMAP readouts): decreased Collagen III, MMP-9; increased Collagen IV; modulated MMP-1, Collagen I
- inflammation-related activities ([8]; BioMAP readouts): decreased M-CSF, sIL-6, MCP-1; modulated IP-10, I-TAC
- myofibroblast activation-related activities ([8]; BioMAP readouts): decreased αSMA, E-Cadherin, N-Cadherin
- tissue remodeling/wound healing activities ([8]; BioMAP readouts): decreased EGFR, tPA, uPA; modulated sVEGF
- activities on cytokines contributing to fibrosis ([8]; compared with nintedanib): marked activities in decreasing TNF-α, IL-1, IL-6, MMP-9, VEGF, and collagen I
